From PMC3098219, “Protective Efficacy of Serially Up-Ranked Subdominant CD8^+ T Cell Epitopes against Virus Challenges” (PLoS Pathogens, 2011)

Key:
[1] = test system: splenocytes of DNA-immunized mice; assay: IFN-γ ELISPOT and ICS with modified HIVA immunogens; assay type: cell-based, BALB/c mice; details: for recognition of altered peptides by splenocytes (IFN-γ): Figure 2A and B, mice immunized with dHmP and dHmPG1, respectively
From the text: To further investigate this phenomenon, we serially inactivated CD8^+ T cell epitopes in the order of their immunodominance. To maintain the HIVA protein integrity, epitopes P and G1 were mutated rather than deleted by substituting the anchor amino acid residues required for a strong binding to the H-2K^d molecule (Figure 2A). The resulting double and triple mutants of the HIVA immunogen were called dHmP and dHmPG1, respectively. […] Groups of BALB/c mice were immunized 2x using the modified HIVA immunogens vectored by plasmid DNA and the immune responses were measured in IFN-γ ELISPOT, ICS and in vivo killing assays. […] Second, consistently in all three assays, immune responses directed against subdominant epitopes were serially recovered, however, not to the same extent. […] Because the response to the G2 epitope remained undetectable even in the dHmPG1-immunized mice, overlapping 15/11 peptides across the whole HIVA immunogen were used again to search for another yet unidentified epitope of a higher rank. […] (Figure 2D). […] Thus, step-wise deletion of immunodominant CD8^+ T cell epitopes restores responses to the subdominant epitopes in the hierarchy.
Figure 2 Serial up-ranking of epitopes. A) Groups of 4 BALB/c mice were immunized 2x i.m. with 100 µg of DNA at a 2-wk interval. Two wk later, splenocytes were assessed in an ELISPOT assay for production of IFN-γ upon re-stimulation with peptides indicated above. Shown are schematic diagrams of HIVA and the three modified immunogens with representative examples of the ELISPOT well images. B) Mice were immunized as in A and 4 wk later, splenocytes were assessed in an ICS assay to measure CD8^+ T cells secreting IFN-γ upon re-stimulation with peptide indicated in the top left corner. Group means±SD are shown. C) Identical groups of mice were assessed for cytolytic activity in an in vivo lysis of syngeneic peptide-pulsed cells transferred into naïve or vaccinated animals. Representative examples of dot plots are shown (top) and the peptide-specific lyses are expressed as a group mean±SD (bottom). D) Groups of 3 BALB/c mice were immunized 3x with 100 µg of DNA indicated above the dot plot in 2-wk intervals and the designated NPP peptide-specific responses were assessed by IFN-γ ICS 2 wk later. The FACS plots are representative examples with IFN-γ producing cells as a percentage of CD8^+ splenocytes shown in the top right panels. All experiments were repeated at least once. TEXT PRINTED IN THE PICTURE: (D) HIVA: 0.05 | (D) HIVAdH: 0.09 | (D) dHmP: 0.08 | (D) dHmPG1: 0.57 DOUBTS OF THE COPYIST ABOUT THIS PICTURE: Panel D: the numbers in the top right quadrants of the CD8 / IFN-γ dot plots are printed without a measure or unit, so they are copied as bare numbers.
The ELISPOT assay was performed using the Mouse IFN-γ ELISpot kit (Mabtech) according to the manufacturer's instructions. Spots were visualised using sequential applications of a biotin-conjugated secondary anti-IFN-γ mAb (R4-6A2, Rat IgG1), an alkaline phosphatase and a chromogenic substrate (Bio-Rad) and counted using the AID ELISpot Reader System (Autoimmun Diagnostika).

H-2K^d [2] = molecular target: T1, H-2K^d (Mus musculus, UniProt P01902); details: ref [34]; cited from earlier work
From the text: (§1) Our research interests lie in development of the T cell component of HIV-1 vaccines stimulating protective CD8^+ T cell responses. The first-generation T cell immunogen, designated HIVA (Figure 1A), has served as an extremely useful tool for iterative improving of CD8^+ T cell induction by experimental vaccines in mice, non-human primates and humans [reviewed in [30]]. To increase the power of T cell analysis and study the role of subdominant determinants, H-2^d class I-restricted epitopes contained in the HIVA immunogen were mapped in detail. Thus, the most immunodominant epitope of ...

CD8^+ T cells = assay: Immunodominance hierarchy of T cell responses to HIVA-derived epitopes; assay type: cell-based, BALB/c mice; details: 10 d after immunization
[3] = test system: H-2D^d, H-2K^d or H-2L^d complexes; assay: T2 peptide binding assay, respective MHC class I complexes; details: Figure 3A; TAP-deficient T2 cells, 100 µM to 0.1 µM peptide, 14 h at 37°C, FACS
Method: Figure 3 Contributing mechanisms of immunodominance. […] T2 cell lines were incubated with decreasing peptide concentrations ranging from 100 µM to 0.1 µM indicated above the H peptide histogram and the cell surface peptide-loaded MHC complexes were detected by fluorochrome-conjugated mAb (DB Biosciences) and quantified using FACS flow cytometer. B) and C) Groups of 3 BALB/c mice were given 3x immunizations using 100 µg of DNA expressing the index or mutated forms of HIVA at 3 wk intervals and their T cell responses were analyzed 4 wk later. B) Splenocytes were assessed in an ICS assay using peptides indicated above the graphs at concentrations ranging from 10 to 10^−8 µM for 5 h. Cells were gated on IFN-γ-producing CD8^+ T cell populations positive (top) or negative (bottom) for CD107a/b. Note the different y-axis scales on the top and bottom graphs. C) The response kinetics of CD8^+ T cells re-stimulated with 0.1 µM peptides was assessed in an ICS assay in 1-h intervals for a period of 4 h. Data shown are as mean±SD of [CD8^+CD107a/b^+IFN-γ^+ cells at each time point (%)] ÷ [CD8^+CD107a/b^+IFN-γ^+ at 4 h (%)]. One out of two independent experiments is shown.
(§2) TAP2 ([…])-deficient T2 cell lines stably expressing D^d, K^d, and L^d molecules kindly provided by Dr. Ted Hansen (Washington university, U.S.A.) were used to assess the ability of MHCs to bind each peptide. In brief, 1×10^5 cells were incubated with 0/0.1/1.0/10/100 µM peptides in no-serum RPMI (R-0) for 14 h at 37°C, 5% CO2 in a flat-bottomed 96-well plate. 14 h later, cells were transferred to a round-bottomed 96-well plate and washed with PBS before staining the cells with anti-H-2K^d/H-2D^d-PE or anti-H-2L^d-PE (eBioscience) monoclonal antibodies. Cells were then analyzed on a FACS flow cytometer.

[4] = test system: CD8^+ splenocytes of immunized mice; assay type: cell-based, BALB/c mice; details: HIVAdH vs HIVA immunization; ex vivo ICS, Figure 1D
[5] = test system: H-2D^d and H-2L^d molecules; details: ref [31], [33]; cited from earlier work
From the text: as §1

[6] = test system: CD8^+ splenocytes of DNA-immunized mice; assay: ICS T cell avidity (peptide titration, CD107a/b and IFN-γ); assay type: cell-based, BALB/c mice; details: for peak IFN-γ^+CD107a/b^+CD8^+ cell frequencies at 10 µM peptide: Figure 3B, individual determinants when dominant: H in group HIVA, P in HIVAdH, G1 in dHmP, NPP in dHmPG1, 3x 100 µg DNA, 5 h
Method: T2 cell lines were incubated with decreasing peptide concentrations ranging from 100 µM to 0.1 µM indicated above the H peptide histogram and the cell surface peptide-loaded MHC complexes were detected by fluorochrome-conjugated mAb (DB Biosciences) and quantified using FACS flow cytometer. B) and C) Groups of 3 BALB/c mice were given 3x immunizations using 100 µg of DNA expressing the index or mutated forms of HIVA at 3 wk intervals and their T cell responses were analyzed 4 wk later. B) Splenocytes were assessed in an ICS assay using peptides indicated above the graphs at concentrations ranging from 10 to 10^−8 µM for 5 h. Cells were gated on IFN-γ-producing CD8^+ T cell populations positive (top) or negative (bottom) for CD107a/b. Note the different y-axis scales on the top and bottom graphs. C) The response kinetics of CD8^+ T cells re-stimulated with 0.1 µM peptides was assessed in an ICS assay in 1-h intervals for a period of 4 h. Data shown are as mean±SD of [CD8^+CD107a/b^+IFN-γ^+ cells at each time point (%)] ÷ [CD8^+CD107a/b^+IFN-γ^+ at 4 h (%)]. One out of two independent experiments is shown.
We also measured avidities of T cell responses recovered through the sequential HIVA epitope up-ranking. First, responsiveness of immune splenocytes following 3 plasmid DNA deliveries was measured in an ICS assay upon re-stimulation with peptide concentrations ranging from 10^−8 to 10 µM for 5 h (Figure 3A).

[7] = test system: syngeneic peptide-pulsed cells; assay: In vivo lysis assay, epitope hierarchy with boost vector and time; parameters: species or system BALB/c mice; details: for epitope hierarchy at 100 d: Figure 5, DNA-DNA (pTH.HIVA) regimen, 100 d after last vaccination
H-2K^d [8] = molecular target: T1, H-2K^d; assay: T2 peptide binding assay, H-2K^d; details: Figure S2A, 100 µM to 0.01 µM peptide
Method: as §2
(§3) Supplementary file ppat.1002041.s002.pdf: Figure S2 T2 assays for peptide binding affinity for MHC class I. TAPdeficient T2 cell lines stably transformed with H-2Dd, H-2Kd or H-2Ld complexes were kindly provided by Dr Hansen, Washington University. Peptide-loaded MHC complexes were detected by fluorochrome-conjugated mAb (DB Biosciences) and the cells were analyzed using flow cytometer. […]
(§4) Supplementary Figure S2. […] Peptide-loaded MHC complexes were detected by fluorochrome-conjugated mAb (DB Biosciences) and the cells were analyzed using flow cytometer. […]

[9] = test system: syngeneic peptide-pulsed cells; assay: in vivo killing assay (lysis of syngeneic peptide-pulsed cells); parameters: species or system BALB/c mice; details: HIVAdH vaccinated relative to HIVA vaccination; Figure 1F
H-2L^d = H-2L^d (Mus musculus, UniProt P01897); assay: T2 peptide binding assay, H-2L^d; details: Figure S2B, 100 µM to 0.01 µM peptide
Method: as §2, §3, §4

H-2D^d = H-2D^d (Mus musculus, UniProt P01900); assay: T2 peptide binding assay, H-2D^d; details: Figure S2B, 100 µM to 0.01 µM peptide
Method: as §2, §3, §4

T1 sequence (P01902 whole entry, looked up): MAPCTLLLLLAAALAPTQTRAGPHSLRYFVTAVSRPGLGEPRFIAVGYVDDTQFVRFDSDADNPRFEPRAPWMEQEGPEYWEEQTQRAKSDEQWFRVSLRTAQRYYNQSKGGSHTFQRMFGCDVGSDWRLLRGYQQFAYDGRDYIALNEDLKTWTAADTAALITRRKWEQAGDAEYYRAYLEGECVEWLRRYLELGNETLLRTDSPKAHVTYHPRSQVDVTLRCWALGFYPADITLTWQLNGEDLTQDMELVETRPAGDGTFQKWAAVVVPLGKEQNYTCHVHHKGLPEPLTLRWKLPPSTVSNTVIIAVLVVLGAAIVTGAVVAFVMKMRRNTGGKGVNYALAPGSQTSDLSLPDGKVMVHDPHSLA
H-2D^d, sequence (P01900 whole entry, looked up): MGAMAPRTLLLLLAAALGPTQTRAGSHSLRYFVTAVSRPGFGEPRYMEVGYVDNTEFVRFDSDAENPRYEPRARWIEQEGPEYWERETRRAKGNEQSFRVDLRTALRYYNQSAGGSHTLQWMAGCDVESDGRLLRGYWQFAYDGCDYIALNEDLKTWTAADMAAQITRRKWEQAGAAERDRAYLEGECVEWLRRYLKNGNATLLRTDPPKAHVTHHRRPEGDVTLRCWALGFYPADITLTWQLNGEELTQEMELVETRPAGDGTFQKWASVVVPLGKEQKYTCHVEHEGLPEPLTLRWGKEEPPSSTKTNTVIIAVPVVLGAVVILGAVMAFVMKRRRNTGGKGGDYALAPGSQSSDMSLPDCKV
H-2L^d, sequence (P01897 whole entry, looked up): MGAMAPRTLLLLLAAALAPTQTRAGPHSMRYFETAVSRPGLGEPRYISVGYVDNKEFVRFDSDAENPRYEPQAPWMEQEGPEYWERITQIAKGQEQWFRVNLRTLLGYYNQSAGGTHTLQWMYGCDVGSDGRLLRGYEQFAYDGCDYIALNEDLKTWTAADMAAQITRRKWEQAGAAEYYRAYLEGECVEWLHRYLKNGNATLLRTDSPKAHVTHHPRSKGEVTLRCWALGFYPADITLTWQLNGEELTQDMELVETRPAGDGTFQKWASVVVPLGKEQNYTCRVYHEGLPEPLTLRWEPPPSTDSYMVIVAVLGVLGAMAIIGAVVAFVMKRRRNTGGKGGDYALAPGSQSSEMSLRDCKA

For NPPIPVGDIYKRWIILGLNK, the “T cell response to peptide in epitope search” value ([1]; dHmPG1-immunized mice, overlapping 15/11 peptides across HIVA) was “a response was detected”.

For TTSTLQEQI [G2, Gag residues 239–247], the “MHC class I restriction (H-2K^d)” value (H-2K^d [2]) is given as “H-2K^d-restricted”, the “restoration of G2-specific response” value ([1]; immunization with dHmPG1 vaccine) is given as “failed to restore the G2-specific response” and the “hierarchy of T cell responses against HIVA-derived epitopes” value (shortened to “hierarchy of T cell responses”) (CD8^+ T cells) is given as “H>P>>G1>NPP>>G2”. For the same sequence, the “peptide binding affinities for respective MHC class I” value (“peptide binding affinities” below) [3] was “directly correlated with the immunodominance hierarchy” and the “frequencies of IFN-γ-producing CD8^+ cells” value [4] was “undetectable”.

For RGPGRAFVTI [H], the “MHC class I restriction (H-2D^d and H-2L^d)” value [5] is given as “restricted by H-2D^d and H-2L^d molecules”, the “hierarchy of T cell responses” value (CD8^+ T cells) is given as “H>P>>G1>NPP>>G2” and the “IFN-γ response in non-degranulating IFN-γ^+CD107a/b^−CD8^+ cells” value ([6]; Figure 3B bottom, following HIVA vaccination, low, but significant) is given as 0.65 % of total CD8^+ cells. For the same sequence, the “peak IFN-γ^+CD107a/b^+CD8^+ cell frequencies at 10 µM peptide” value [6] was 3.2 % of total CD8^+ splenocytes, the “peptide binding affinities” value [3] was “directly correlated with the immunodominance hierarchy” and the “epitope hierarchy at 100 d” value [7] was “no longer dominated the anti-HIVA response”. The “epitope hierarchy at 28 d” value ([7]; double or triple DNA prime-boost regimen, 28 d post vaccination) was “the strongest at 28 d post vaccination”.

In the case of IFGSSMTKA [altered P peptide], the “recognition of altered peptides by splenocytes (IFN-γ)” value [1] is reported as “unable to recognize” and the “binding to H-2K^d” value (H-2K^d [8]) is reported as “unable to bind”.

For AMEFLKDTA [altered G1 peptide], the “recognition of altered peptides by splenocytes (IFN-γ)” value [1] was “unable to recognize” and the “binding to H-2K^d” value (H-2K^d [8]) was “unable to bind”.

For IFQSSMTKI [P], the “hierarchy of T cell responses” value (CD8^+ T cells) was “H>P>>G1>NPP>>G2”, the “peak IFN-γ^+CD107a/b^+CD8^+ cell frequencies at 10 µM peptide” value [6] was 3.3 % of total CD8^+ splenocytes and the “peptide binding affinities” value [3] was “directly correlated with the immunodominance hierarchy”. The “in vivo lysis of peptide-pulsed targets” value [9] was “increased in vivo lysis”, the “epitope hierarchy at 100 d” value [7] was “replaced by T cells specific for peptide P” and the “frequencies of IFN-γ-producing CD8^+ cells” value [4] was “noticeably, though not significantly increased”.

With NPPIPVGDI the “hierarchy of T cell responses” value (CD8^+ T cells) was “H>P>>G1>NPP>>G2”, the “peak IFN-γ^+CD107a/b^+CD8^+ cell frequencies at 10 µM peptide” value [6] was 0.8 % of total CD8^+ splenocytes and the “restriction / binding to H-2L^d” value (H-2L^d) was “restricted by H-2D^d and H-2L^d”. For the same sequence, the “restriction / binding to H-2D^d” value (H-2D^d) was “restricted by H-2D^d and H-2L^d”.
